Experimental data taken from patent US12624050B2, “Three fused ring derivative-containing salt or crystal form and pharmaceutical composition thereof” (Shanghai Hansoh Biomedical Co., Ltd., priority 2019, dated 2026).

Tests used:
[1] = Stability experiment of the solids (60°C, RH 95%, light), HPLC; format: physicochemical; conditions: light condition (5000 lx) for 10 days
Experimental: About 2 mg of crystal form A of mesylate salt, crystal form C of sulfate salt and crystal form A of ethanesulfonate salt of (S)-2-((2-((R)-4-(difluoromethyl)-2-oxothiazolidin-3-yl)-5,6-dihydrobenzo[f]imidazo[1,2-d][1,4]oxazepin-9-yl)amino)propionamide was placed in a sealed oven at 60° C., in an unsealed container at room temperature under RH 95% (saturated aqueous KNO3 solution) and in a light box (5000 lx±500 lx) and observed for 5 days and 10 days. The content of salt was determined by HPLC using the external standard method. Changes of related substance of salt in substances related to the salts were calculated by normalization of chromatography peak area.

[2] = Hygroscopicity experiment; format: physicochemical; conditions: for crystal form (XRPD pattern) after humidification and dehumidification: 1 cycle under 0 to 95% relative humidity; for hygroscopic weight gain / hygroscopicity (in words): RH 80%
Experimental: Crystal form A of mesylate salt, crystal form D of sulfate salt and crystal form A of ethanesulfonate salt of (S)-2-((2-((R)-4-(difluoromethyl)-2-oxothiazolidin-3-yl)-5,6-dihydrobenzo[f]imidazo[1,2-d][1,4]oxazepin-9-yl)amino)propionamide were placed in saturated water vapor with different relative humidity, so that the compound and water vapor reached a dynamic equilibrium, and the percentage of hygroscopic weight gain of the compound after the equilibrium was calculated.

[3] = Solubility experiment in different media, thermodynamic solubility at 37°C; format: physicochemical; conditions: for solubility after salt formation compared with the free compound: 37°C; for solubility at 24 h: thermodynamic from solid, thermodynamic solubility
Experimental: About 2 mg of crystal form A of ethanesulfonate salt of (S)-2-((2-((R)-4-(difluoromethyl)-2-oxothiazolidin-3-yl)-5,6-dihydrobenzo[f]imidazo[1,2-d][1,4]oxazepin-9-yl)amino)propionamide was suspended in different media for 24 hours.

[4] = Polymorphic screening experiment; format: physicochemical; conditions: slurrying, changing solvent and crystallization mode
Experimental: Organic solvents and water with a certain solubility was chosen to suspend the compound in the solvent system, and the mixture was stirred and slurried at room temperature for 1 week, and then centrifuged. The supernatant was discarded, and the solid was dried in vacuum (−0.1 Mpa) at 40° C. overnight. Then the XRPD of the solid was measured and compared with the XRPD of salt of the compound.

[5] = PK studies in animals of salt crystal forms, intragastric 30 mg/kg; format: in vivo; conditions: 0.5% HPMC K4M suspension; for exposure in rats (in words): 30 mg/kg; for AUC(0-inf) / AUC(0-t) / Cmax / Tmax / half-life / MRT inf: rat, in vivo, po, rats, 30 mg/kg (as free compound); for MRT inf: read-out: MRT0-∞
Experimental: 7.2.1 Crystal form A of mesylate salt, crystal form D of sulfate salt and crystal form A of ethanesulfonate salt of (S)-2-((2-((R)-4-(difluoromethyl)-2-oxothiazolidin-3-yl)-5,6-dihydrobenzo[f]imidazo[1,2-d][1,4]oxazepin-9-yl)amino)propionamide were evenly suspended in an aqueous solution containing 0.5% HPMC (hydroxypropyl methylcellulose) K4M, and then intragastrically administered to rats in duplicate at a dose of 30 mg/kg. The amount of the compound was all converted into the amount of the same compound (S)-2-((2-((R)-4-(difluoromethyl)-2-oxothiazolidin-3-yl)-5,6-dihydrobenzo[f]imidazo[1,2-d][1,4]oxazepin-9-yl)amino)propionamide.

Structure (SMILES)	increase of new impurity compared with 0 days [1]	crystal form (XRPD pattern) after humidification and dehumidification [2]	hygroscopic weight gain [2]	hygroscopicity (in words) [2]	exposure in rats (in words) [5]	AUC(0-inf) [5]	AUC(0-t) [5]	Cmax [5]	Tmax [5]	half-life [5]	MRT inf [5]	other results
C[C@H](Nc1ccc2c(c1)OCCn1cc(N3C(=O)SC[C@H]3C(F)F)nc1-2)C(N)=O.O=S(=O)(O)O [crystal form C of sulfate salt, (S)-2-((2-((R)-4-(difluoromethyl)-2-oxothiazolidin-3-yl)-5,6-dihydrobenzo[f]imidazo[1,2-d][1,4]oxazepin-9-yl)amino)propionamide]	0.172%	–	–	–	–	–	–	–	–	–	–	–
CCS(=O)(=O)O.C[C@H](Nc1ccc2c(c1)OCCn1cc(N3C(=O)SC[C@H]3C(F)F)nc1-2)C(N)=O [crystal form A of ethanesulfonate salt, (S)-2-((2-((R)-4-(difluoromethyl)-2-oxothiazolidin-3-yl)-5,6-dihydrobenzo[f]imidazo[1,2-d][1,4]oxazepin-9-yl)amino)propionamide]	0.134%	the crystal form did not change	0.207%	slight hygroscopicity	higher exposures	10400 ng·h/mL	10000 ng·h/mL	1460 ng/mL	1 h	3.01 h	6.98 h	solubility after salt formation compared with the free compound ([3]; media of pH4 to 8 buffer): slightly lower solubility; solubility at 24 h ([3]; medium of pH 1, simulated gastric fluid, medium pH 1, 37° C.): 9370 µg/mL; solubility at 24 h ([3]; medium of pH 2, simulated gastric fluid, medium pH 2, 37° C.): 974 µg/mL; solubility at 24 h ([3]; medium of pH 3, aqueous buffer, medium pH 3, 37° C.): 268 µg/mL; solubility at 24 h ([3]; medium of pH 4, aqueous buffer, medium pH 4, 37° C.): 49 µg/mL; solubility at 24 h ([3]; medium of pH 5, aqueous buffer, medium pH 5, 37° C.): 20 µg/mL; solubility at 24 h ([3]; medium of pH 6, aqueous buffer, medium pH 6, 37° C.): 5 µg/mL; solubility at 24 h ([3]; medium of pH 7, aqueous buffer, medium pH 7, 37° C.): 12 µg/mL; solubility at 24 h ([3]; medium of pH 8, aqueous buffer, medium pH 8, 37° C.): 14 µg/mL; solubility after salt formation compared with the free compound ([3]; other media, most obviously in water): increased the solubility; solubility at 24 h ([3]; medium Fa (fasted-state simulated intestinal fluid, FaSSIF), 37° C.): 44 µg/mL; solubility at 24 h ([3]; medium Fe (fed-state simulated intestinal fluid, FeSSIF), 37° C.): 163 µg/mL; solubility at 24 h ([3]; medium SGF (simulated gastric fluid), 37° C.): 1150 µg/mL; solubility at 24 h ([3]; medium water, 37° C.): 608 µg/mL; crystal form obtained in polymorphic screening [4]: in crystal form A was obtained
CS(=O)(=O)O.C[C@H](Nc1ccc2c(c1)OCCn1cc(N3C(=O)SC[C@H]3C(F)F)nc1-2)C(N)=O [crystal form A of mesylate salt, (S)-2-((2-((R)-4-(difluoromethyl)-2-oxothiazolidin-3-yl)-5,6-dihydrobenzo[f]imidazo[1,2-d][1,4]oxazepin-9-yl)amino)propionamide]	0.523%	the crystal form changed	3.6%	had hygroscopicity	higher exposures	10200 ng·h/mL	9840 ng·h/mL	1180 ng/mL	1 h	3.54 h	6.52 h	–
